One molecule from PubChem BioAssay AID488823 (NMMLSC, 2010) can be followed below.

The test system of the test is S. cerevisiae LAP4-GFP strain, flow cytometry fluorescence. Put plainly: yeast LAP4 reporter analogs, concentration series – cell-based, cherry pick 3, flow cytometry, SAR follow-up (AID 488823).

One may read the EC50 as the concentration at which the effect is half-maximal.

Consider `Cc1ccc2c(Cl)cc(Cl)c(O)c2n1`, for which the EC50 was 5.38 µM.
